From the supplement of paper PMC10307832

Tests used:
Experiment in all cases: relative viability (nuclei count vs DMSO), 5 days (fraction); higher = more cells survive
Ibrutinib + Lapatinib = compound: C=CC(=O)N1CCC[C@@H](n2nc(-c3ccc(Oc4ccccc4)cc3)c3c(N)ncnc32)C1 [Ibrutinib] + CS(=O)(=O)CCNCc1ccc(-c2ccc3ncnc(Nc4ccc(OCc5cccc(F)c5)c(Cl)c4)c3c2)o1 [Lapatinib] (partner 2 µM)
Outline: (§1)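 Relative viability equals treated-well nuclei counts divided by vehicle-well nuclei counts. Counts came from 4× images of lung cancer cell lines grown in 1536-well plates for 5 days after pin-tool dosing on the day after seeding. Dosing used one drug alone or a fixed anchor-drug dose plus five library-drug doses (not always all listed) in √10 steps, and values are medians of duplicate plates.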

Ibrutinib + Decitabine = compound: C=CC(=O)N1CCC[C@@H](n2nc(-c3ccc(Oc4ccccc4)cc3)c3c(N)ncnc32)C1 [Ibrutinib] + Nc1ncn([C@H]2C[C@H](O)[C@@H](CO)O2)c(=O)n1 [Decitabine] (partner 2 µM)
Outline: as §1

Ibrutinib + AZD7762 = compound: C=CC(=O)N1CCC[C@@H](n2nc(-c3ccc(Oc4ccccc4)cc3)c3c(N)ncnc32)C1 [Ibrutinib] + NC(=O)Nc1cc(-c2cccc(F)c2)sc1C(=O)N[C@H]1CCCNC1 [AZD7762] (partner 0.2 µM)
Outline: as §1

PAC-1 + Linsitinib = compound: C=CCc1cccc(/C=N/NC(=O)CN2CCN(Cc3ccccc3)CC2)c1O [PAC-1] + C[C@]1(O)C[C@@H](c2nc(-c3ccc4ccc(-c5ccccc5)nc4c3)c3c(N)nccn32)C1 [Linsitinib] (partner 1 µM)
Outline: as §1

Row | Cell Line | relative viability (Ibrutinib + Lapatinib; first compound 0.005 µM) | relative viability (Ibrutinib + Lapatinib; first compound 0.01581 µM) | relative viability (Ibrutinib + Lapatinib; first compound 0.05 µM) | relative viability (Ibrutinib + Lapatinib; first compound 0.1581 µM) | relative viability (Ibrutinib + Lapatinib; first compound 0.5 µM) | relative viability (Ibrutinib + Decitabine; first compound 0.005 µM) | relative viability (Ibrutinib + Decitabine; first compound 0.01581 µM) | relative viability (Ibrutinib + Decitabine; first compound 0.05 µM) | relative viability (Ibrutinib + Decitabine; first compound 0.1581 µM) | relative viability (Ibrutinib + Decitabine; first compound 0.5 µM) | relative viability (Ibrutinib + AZD7762; first compound 0.005 µM) | relative viability (Ibrutinib + AZD7762; first compound 0.01581 µM) | relative viability (Ibrutinib + AZD7762; first compound 0.05 µM) | relative viability (Ibrutinib + AZD7762; first compound 0.1581 µM) | relative viability (Ibrutinib + AZD7762; first compound 0.5 µM) | relative viability (PAC-1 + Linsitinib; first compound 0.02 µM) | relative viability (PAC-1 + Linsitinib; first compound 0.06325 µM) | relative viability (PAC-1 + Linsitinib; first compound 0.2 µM) | relative viability (PAC-1 + Linsitinib; first compound 2 µM)
1 | NCI-H1734 | 0.843 | 1.01 | 1.14 | 1.19 | 1.04 | 0.548 | 0.511 | 0.541 | 0.455 | 0.47 | 0.481 | 0.518 | 0.449 | 0.557 | 0.526 | 0.845 | 0.885 | 0.928 | 1.02
2 | NCI-H1755 |  | 0.991 | 1.08 | 0.981 | 1.05 | 0.739 | 0.716 | 0.704 | 0.713 | 0.7 | 0.45 | 0.455 | 0.454 | 0.409 | 0.453 | 1.01 | 1 | 0.94 | 0.982
3 | NCI-H1792 | 0.907 | 0.896 | 0.913 | 0.73 | 0.912 |  | 0.584 | 0.558 | 0.591 | 0.441 |  | 0.693 | 0.6 | 0.636 | 0.515 | 0.648 | 0.602 | 0.534 | 0.579
4 | NCI-H1793 |  | 0.796 | 0.819 | 0.58 | 0.577 | 0.478 | 0.485 | 0.432 | 0.502 | 0.366 | 0.395 | 0.33 | 0.408 | 0.85 | 0.13 | 0.728 | 1.01 | 1.21 | 0.96
5 | NCI-H1915 |  | 0.987 | 1.01 | 1.06 | 1.06 | 0.269 | 0.272 | 0.275 | 0.272 | 0.255 | 0.76 | 0.638 | 0.625 | 0.741 | 0.667 | 1.09 | 1.09 | 1.02 | 1.07
6 | NCI-H1944 | 0.818 | 0.818 | 0.771 | 0.7 | 0.844 | 0.426 | 0.363 | 0.413 | 0.433 | 0.372 | 0.388 | 0.455 | 0.409 | 0.448 | 0.422 | 1.17 | 1.05 | 1.12 | 1.06
7 | NCI-H1975 | 0.899 | 0.772 | 0.837 | 0.79 | 0.517 | 0.414 | 0.354 | 0.379 | 0.373 | 0.177 | 0.647 | 0.556 | 0.517 | 0.522 | 0.342 | 0.917 | 0.908 | 0.921 | 0.894
8 | NCI-H1993 | 0.766 | 0.576 | 0.856 |  | 0.764 | 0.571 | 0.637 | 0.579 | 0.554 | 0.441 | 0.39 | 0.732 | 0.739 | 0.751 | 0.557 | 0.735 | 0.797 | 0.745 | 0.701
9 | NCI-H2085 | 0.651 | 0.727 | 0.75 | 0.752 | 0.631 | 0.57 | 0.56 | 0.588 |  | 0.568 | 0.906 | 0.926 | 0.919 | 0.926 | 0.729 | 0.891 | 0.936 | 0.943 | 1.04
10 | NCI-H2087 | 1.09 | 1.17 | 0.986 | 1.03 | 1.11 | 0.238 | 0.279 | 0.261 |  | 0.291 | 1.77 | 1.19 | 1.04 |  | 1.21 | 1.18 | 0.931 | 0.899 | 0.875
11 | NCI-H2126 |  | 0.726 | 0.756 | 0.741 | 0.706 | 0.537 | 0.565 | 0.613 | 0.598 | 0.502 | 0.776 | 0.966 | 0.962 | 0.986 | 0.958 | 0.696 | 0.703 | 0.692 | 0.694
12 | NCI-H2347 | 0.962 | 0.899 | 0.897 | 0.555 | 0.861 | 0.65 | 0.609 | 0.658 | 0.575 | 0.535 | 0.739 | 0.733 | 0.69 | 0.665 | 0.696 | 0.97 | 1.02 | 0.894 | 0.986
13 | NCI-H2405 | 0.942 | 1.08 | 0.973 |  | 1.09 | 0.622 | 0.715 |  |  | 0.682 | 0.778 | 0.65 |  |  | 0.829 | 0.949 | 0.918 | 0.899 | 1.08
14 | NCI-H3122 | 0.953 | 1.03 | 1.04 | 0.948 | 0.99 | 0.52 | 0.381 | 0.471 | 0.424 | 0.431 | 1.16 | 0.946 | 1.03 | 0.885 | 0.992 | 1.03 | 1.01 | 0.992 | 1.03
15 | PC-3 [JPC-3] | 0.389 | 0.45 | 0.439 | 0.413 | 0.444 | 0.707 | 0.762 | 0.707 | 0.837 | 0.542 | 0.631 | 0.588 | 0.478 |  | 0.445 | 1.04 | 0.965 | 0.948 | 0.97
16 | PC-14 | 0.308 | 0.302 | 0.285 | 0.322 | 0.327 | 0.241 | 0.202 | 0.217 | 0.168 | 0.22 | 0.379 | 0.349 | 0.314 | 0.224 | 0.23 | 0.967 | 1.03 | 0.91 | 0.925
17 | RERF-LC-KJ | 0.831 | 0.931 | 0.937 | 0.888 | 0.785 | 0.599 | 0.654 | 0.561 | 0.693 | 0.728 | 0.464 | 0.943 | 0.845 | 0.896 | 0.714 | 0.904 | 0.818 | 0.861 | 0.887
